Measured values as given in patent US20070004680A1, “Compositions and methods for modulating gated ion channels” (PainCeptor Pharma Corporation, priority 2004, published 2007).

Biological target: T1, ASIC1a (Homo sapiens, UniProt P78348)
T1 construct: host or cells: HEK293
T1 sequence (P78348 1-528): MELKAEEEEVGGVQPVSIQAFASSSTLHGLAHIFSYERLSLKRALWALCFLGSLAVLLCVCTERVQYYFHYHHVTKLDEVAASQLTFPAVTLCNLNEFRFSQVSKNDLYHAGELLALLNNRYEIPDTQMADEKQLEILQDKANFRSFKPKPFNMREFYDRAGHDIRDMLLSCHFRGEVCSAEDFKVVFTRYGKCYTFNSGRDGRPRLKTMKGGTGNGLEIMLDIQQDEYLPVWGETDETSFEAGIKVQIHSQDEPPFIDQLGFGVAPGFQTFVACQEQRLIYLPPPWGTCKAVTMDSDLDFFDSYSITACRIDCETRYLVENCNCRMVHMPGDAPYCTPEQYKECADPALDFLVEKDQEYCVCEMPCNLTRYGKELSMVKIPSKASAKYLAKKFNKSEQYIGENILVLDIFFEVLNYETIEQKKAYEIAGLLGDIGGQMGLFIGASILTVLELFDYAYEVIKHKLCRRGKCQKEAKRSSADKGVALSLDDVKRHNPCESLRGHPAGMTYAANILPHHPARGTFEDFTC
Test: FLIPR calcium assay (MES-induced calcium response), ASIC1a expressing HEK293 cells
Assay type: cell-based
Details: HEK cells
Procedure: ASIC1a expressing HEK293 cells are grown in culture medium (DMEM with 10% FBS), in polystyrene culture flasks ([…]) at 37° C. in a humidified atmosphere of 5% CO2. Confluency of cells should be 80-90% on day of plating. Cells are rinsed with 10 ml of PBS and cells are re-suspended by addition of culture medium and trituration with a 25 ml pipette.
The cells are seeded at a density of approximately 1×10^6 cells/ml (100 μl/well) in black-walled, clear bottom, 96-well plates pre-treated with 10 mg/l poly-D-lysin (75 μl/well for ≧30 min). Plated cells were allowed to proliferate for 24 h before loading with dye.
Fluo-4/AM (1 mg, Molecular Probes) is added 912 μl DMSO. The Fluo-4/AM stock solution (1 mM) is diluted with culture medium to a final concentration of 2 μM.
The culture medium is aspirated from the wells, and 50 μl of the Fluo-4/AM loading solution is added to each well. The cells are incubated at 37° C. for 30 min.
After the loading period, the loading solution is aspirated and the cells are washed twice with 100 μl modified FLIPR medium (145 mM NaCl, 5 mM KCl, 5 mM CaCl2, 1 mM MgCl2, 10 mM HEPES, pH 7.4) to remove extracellular dye. Following the second wash, 100 μl modified FLIPR medium is added to each well and the fluorescence is measured in FLIPR.
Temperature: Room temperature (20-22° C.)
First addition: 50 μl test solution at a rate of 30 μl/sec and a starting height of […]
Second addition: 50 μl MES solution (20 mM, 5 mM final concentration) at a rate of 35 μl/sec and a starting height of 150 μl.
Reading intervals: pre-incubation—10 sec×7 and 3 sec×3 antagonist phase—3 sec×17 and 10 sec×12
Addition plates (compound test plate and MES plate) are placed on the right and left positions in the FLIPR tray, respectively. Cell plates are placed in the middle position and the ASIC1a program is effectuated. FLIPR will then take the appropriate measurements in accordance with the interval settings above. Fluorescence obtained after stimulation is corrected for the mean basal fluorescence (in modified FLIPR medium). […]

SMILES: C=CC1CN2CCC1CC2[C@@H](OC(=O)CCC1CCCC1)c1ccnc2ccccc12 (some centres unmarked) [Compound A]
- inhibition at 1 µM (HEK293, at 1 μM, FLIPR): 30 to 45%
- IC50 (MES-induced calcium response, peak values): 1000 to 4000 nM
